Measurements from EPA's ToxValDB 9.5 (doi:10.2903/j.efsa.2013.3143).
Values joined by “and” are separate entries in the source; they are usually repeats but may differ in a detail not shown here. Identical values can stand only once.

Experiments:
Rattus norvegicus = conditions: for LD50: acute, oral, mortality
Apis mellifera = conditions: acute, mortality
Hypoaspis aculeifer = conditions: chronic/long-term; duration: 16 days; mortality
Bibionidae = conditions: chronic/long-term; duration: 28 days; other
Canidae = conditions: chronic; duration: 1 years; oral; Dog Other; organ weight
Daphnia magna = conditions: chronic/long-term; duration: 21 days; reproduction
Oncorhynchus mykiss = conditions: chronic/long-term; duration: 90 days; development
Cyprinodon variegatus = conditions: acute; duration: 96 hours; mortality
Typhlodromus pyri = experiment: LR50; higher = less toxic; conditions: chronic/long-term; duration: 7 days; mortality

Row | SMILES | LD50 (Mus musculus; acute, oral, mortality) [mg/kg-day] | LD50 (Rattus norvegicus) [mg/kg-day] | NOAEL (Rattus norvegicus; chronic, duration: 2 years, organ weight) [mg/kg-day] | NOAEL (Rattus norvegicus; reproduction developmental, no effects) [mg/kg-day] | LC50 (Tagia sp.; acute, duration: 14 days, mortality) [mg/kg] | NOEC (Tagia sp.; chronic/long-term, duration: 56 days, reproduction) [mg/kg] | LD50 (Apis mellifera; duration: 48 hours, oral, unspecified) [µg/piece] | LD50 (Apis mellifera; duration: 72 hours, dermal) [µg/piece] | LC50 (Colinus virginianus; acute, oral, diet, mortality) [mg/kg-day] | LD50 (Colinus virginianus; acute, oral, mortality) [mg/kg-day] | NOAEL (Colinus virginianus; reproduction developmental, reproduction) [mg/kg-day] | NOAEL (Mus musculus; chronic, duration: 18 months, histopathology: nonneoplastic) [mg/kg-day] | NOEC (Hypoaspis aculeifer) [mg/kg] | NOEC (Bibionidae) | NOAEL (Canidae) [mg/kg-day] | NOEC (Daphnia magna) [mg/L] | NOEC (Oncorhynchus mykiss) [mg/L] | LC50 (Cyprinodon variegatus) [µg/mL] | LR50 (Typhlodromus pyri) [g/ha]
1 | CNC(=O)c1cc(Br)[nH]n1 [5-Bromo-N-methyl-1H-pyrazole-3-carboxamide] | > 2000 | – | – | – | – | – | – | – | – | – | – | – | – | – | – | – | – | – | –
2 | Cc1cc(Cl)cc2c(=O)n(C)c(-c3cc(Br)[nH]n3)nc12 [Chlorantraniliprole metabolite (IN-LBA24)] | – | > 2000 | – | – | – | – | – | – | – | – | – | – | – | – | – | – | – | – | –
3 | CNC(=O)c1cc(Cl)cc(C)c1NC(=O)c1cc(Br)nn1-c1ncccc1Cl [Chlorantraniliprole] | – | > 5000 | 156 | 1200 | > 1000 | 1000 | > 104 | > 4 | > 1730 | > 2250 | 10.1 | 158 | 100 | 0.0025 mg/L and 0.005 mg/kg | 278 | 0.00447 | 0.11 | > 12 | > 750
